The values below are quoted from earlier work in patent US12486292B2, “Prodrug platform useful to deliver amines, amides and phenols” (Changchun Changcheng Pharmaceutical Technology Co., LTD, priority 2019, dated 2025).

For the data set the following is noted: phase I human clinical trials, oral dosing.

Regarding `CCCC(CCC)C(=O)Nc1ccn([C@@H]2O[C@H](CO)[C@@H](O)C2(F)F)c(=O)n1` [LY2334737], the Hepatotoxicity result was “observed in some patients”.
